Results reported in patent US5212158A, “Derivatives of L-proline, their preparation and their biological uses” (Inorgan SA Recherche & Developpement Pharmaceutiques, CAS, priority 1987, dated 1993).
Residues, ends and D or L forms follow the SMILES beside them. *: point of attachment. PhAc = O=C(Cc1ccccc1)*; Bz = O=C(c1ccccc1)*

Experiments:
mouse = test: Test of passive avoidance: amnesia induced by scopolamine; type: in vivo; conditions: for activity in the scopolamine amnesia test: at 2, 8 and 32 mg/kg; for activity in the scopolamine amnesia test / dose at which activity is significant / active dose, scopolamine amnesia test: oral administration; for dose with significant/antagonistic effect on scopolamine amnesia: i.p. route 60 minutes before Assay 1
Method: The procedure described by Glick and Zimmerberg in Behavioural Biology, 1972, 7: 245-254 and by Lenegre et al in Pharmacol. Biochem. Behav., 29 (3) 1988 were used.
The mouse is introduced into the illuminated compartment of a two-compartment box. When it crosses into the darker component its paws receive electric shocks of 0.3 mA until it returns into the illuminated compartment (Assay 1).
When the mouse is returned to the box 24 hours later (Assay 2), it avoids going into the darker component. An i.p. injection of scopolamine (1 mg.kg^-1) 30 minutes before Assay 1 reduces the memory of this experience as is reflected in the delay of the reaction of the mouse before it crosses to the darker compartment in Assay 2. […]
Piracetam was used as reference substance.

TSH = test: Effect on adenohypophyseal hormone secretions: TSH radioimmunoassay; type: in vivo, rat; conditions: male rats, plasma 30 min later; for activity on TSH levels: 32 mg/kg IP
Method: (§1) Male rats received 2 mg/kg, 8 mg/kg, or 32 mg/kg IP of product of example 1 in arabic gum (2.5%) and 32 mg/kg IP of products of examples 2 and 3. Rats were killed 30 min. later by decapitation and plasma samples were aliquoted and kept frozen (-20° C.) until assays. Before the experiments, the rats have been accustomed to handling to avoid any stress effect.
(§2) Hormones were assayed using radioimmunoassays for prolactin, GH and TSH.

GH = test: Effect on adenohypophyseal hormone secretions: GH radioimmunoassay; type: in vivo, rat; conditions: male rats; 32 mg/kg IP; plasma 30 min later
Method: as §1, §2

prolactin = test: Effect on adenohypophyseal hormone secretions: prolactin radioimmunoassay; type: in vivo, rat; conditions: male rats, plasma 30 min later; for activity on prolactin levels: 32 mg/kg IP
Method: as §1, §2

mice of the NMRI strain [1] = test: Antagonism of sleep induced by barbiturates; type: in vivo, mouse; conditions: oral 2 and 8 mg/kg one hour before barbital 50 mg/kg i.p.; compared with a control group
Method: A compound of the invention is administered orally at doses of 2, 8 and 32 mg.kg^-1 to mice of the NMRI strain one hour before the intraperitoneal administration of barbital at a dose of 50 mg/kg.

mice of the NMRI strain [2] = test: Test of passive avoidance: amnesia induced by diazepam; type: in vivo, mouse; conditions: for dose with statistically significant effect / dose reducing diazepam amnesia: 60 minutes before Assay 1, piracetam by the i.p. route
Method: A volume of 0.25 ml/20 g of body weight of the compound of Example 1 (suspension in 5% gum arabic) is administered to mice of the NMRI strain or, in the case of the reference substance, an aqueous solution of piracetam or of diazepam (5% suspension in gum arabic) is administered. The control animals receive only injections of the vehicle (suspension of gum arabic). The test is carried out at indicated above for the induction of amnesia by the injection of scopolamine, with exception that this latter is replaced by diazepam. An injection of diazepam by the i.p. route 30 minutes before Assay 1 at a dose of 1 mg.kg^-1 reduces memory in a significant manner as is shown by the diminution of the reaction time in the mouse for crossing to the dark compartment during Assay 2.

[3] = tested on: male mice of the NMRI strain; test: Irwin test; type: in vivo, mouse
Method: A volume of 0.25 ml/20 g of body weight of a suspension of the compound of the invention in 5% gum arabic is administered to male mice of the NMRI strain by the i.p. route. The control animals received only the 5% suspension of gum arabic. Changes in behaviour, neurotoxicity symptoms, the diameter of the pupil and the rectal temperature are recorded in the standardized observation schedule according to Irwin in Psychopharmacologia, 1968, 13, 222-257. These observations were made at 15, 30, 60, 120 and 180 minutes after injection and 24 hours later. The compounds of the invention were studied at doses of 1024, 512 and 256 mg.kg^-1.

NMRI mice = test: Potentiation of the effects of L-dopa; type: in vivo, mouse; conditions: oral 8 and 32 mg/kg one hour before L-dopa 150 mg/kg i.p.
Method: A compound of the invention is adiministered orally at doses of 2, 8 and 32 mg/kg to NMRI mice one hour before the intraperitoneal administration of 150 mg/kg of L-dopa.

[4] = Solubility of the product obtained; type: physicochemical
Description: The product obtained was insoluble in water and is soluble to the extent of at least 1% to 5% in organic solvents such as methanol. chloroform, ethyl acetate and dimethylformamide.

[5] = i.p. 1024 mg.kg^-1, between 1 and 2 hours after administration

4-fluorocinnamoylglycyl-L-phenylalanine-L-prolinamide [Example 2]
activity in the scopolamine amnesia test (mouse): active
dose at which activity is significant / active dose, scopolamine amnesia test (mouse): 2 mg/kg
activity on TSH levels (TSH): no activity at all
activity on GH levels (GH): no activity at all
activity on prolactin levels (prolactin): no activity at all

NC(=O)[C@@H]1CCCN1C(=O)[C@H](Cc1ccccc1)NC(=O)CNC(=O)C=Cc1ccccc1 [Example 1, cinnamoyl-glycyl-L-phenylalanyl-L-prolinamide]
duration of sleep (mice of the NMRI strain [1]): significantly diminishes the duration of sleep
activity in the scopolamine amnesia test (mouse): active
antagonism of the effects of scopolamine (Assay 2) (mouse; i.p. 60 minutes before Assay 1, doses of 1, 4 and 16 mg/kg): antagonizes the effects of scopolamine
dose with significant/antagonistic effect on scopolamine amnesia (mouse): 1 mg/kg
dose at which activity is significant / active dose, scopolamine amnesia test (mouse): 2 mg/kg
dose with statistically significant effect / dose reducing diazepam amnesia (mice of the NMRI strain [2]): 4 mg/kg
antagonism of the effect of diazepam (Assay 2) (mice of the NMRI strain [2]; doses of 0.25, l and 4 mg.kg^-1, 60 minutes before Assay 1, diazepam 1 mg.kg^-1 i.p.): antagonizes the effect of diazepam in a dose-dependent manner
TSH levels (TSH; 8 mg/kg IP): very slightly increased
Irwin observations versus control animals ([3]; i.p. 256 mg.kg^-1): no difference from the control animals
Irwin observations (hypothermia) ([3]; i.p. 512 mg.kg^-1): only a slight hypothermia
hypothermia ([3]; i.p. 1024 mg.kg^-1): hypothermia (2 mice/3)
ptosis ([3]; i.p. 1024 mg.kg^-1): moderate ptosis (3 mice/3)
excitation [3, 5]: excitation (1 mouse/3)
sedation [3, 5]: slight sedation (1 mouse/3)
behavioural changes with L-dopa (NMRI mice): induces behavioural changes in the treated animals such as rapid running and jumping
solubility in water [4]: insoluble
prolactin levels (prolactin; 2, 8 or 32 mg/kg IP, dose dependent): slightly increased

NC(=O)[C@@H]1CCCN1C(=O)[C@H](Cc1ccccc1)NC(=O)CNC(=O)C=Cc1ccc2c(c1)OCO2 [Example 3, 3,4-methylenedioxycinnamoyl-glycyl-L-phenylalanyl-L-prolinamide]
activity in the scopolamine amnesia test (mouse): active
dose at which activity is significant / active dose, scopolamine amnesia test (mouse): 2 mg/kg
activity on TSH levels (TSH): no activity at all
activity on GH levels (GH): no activity at all
activity on prolactin levels (prolactin): no activity at all

NC(=O)[C@@H]1CCCN1C(=O)[C@H](Cc1ccccc1)NC(=O)CNC(=O)c1ccccc1 [Example 6, benzoyl-glycyl-L-phenylalanyl-L-prolinamide] (Bz-Gly-Phe-Pro-NH2)
activity in the scopolamine amnesia test (mouse): active
dose at which activity is significant / active dose, scopolamine amnesia test (mouse): 2 mg/kg

NC(=O)[C@@H]1CCCN1C(=O)[C@H](Cc1ccccc1)NC(=O)CNC(=O)Cc1ccccc1 [Example 7, phenylacetyl-glycyl-L-phenylalanyl-L-prolinamide] (PhAc-Gly-Phe-Pro-NH2)
activity in the scopolamine amnesia test (mouse): active
dose at which activity is significant / active dose, scopolamine amnesia test (mouse): 2 mg/kg

NC(=O)CN1CCCC1=O [piracetam, reference compound]
latent periods for crossing into the dark compartment or for escaping from it during Assay 1 (mouse; i.p. or oral route 60 mn before the assay, Assay 1): does not produce any effect
dose with significant/antagonistic effect on scopolamine amnesia (mouse): 512 mg/kg
dose at which activity is significant / active dose, scopolamine amnesia test (mouse): 2048 mg/kg
dose with statistically significant effect / dose reducing diazepam amnesia (mice of the NMRI strain [2]): 512 mg/kg
